Laboratory results from ChEMBL document CHEMBL1145511, “Comparative activities of daptomycin, linezolid, and tigecycline against catheter-related methicillin-resistant Staphylococcus bacteremic isolates embedded in biofilm” (2007).
In brackets after ≈: the same amount, converted by molar mass. Activity calls are given as the source filed them. The rule behind the calls is not given here.

What was measured:
Staphylococcus aureus [1] = experiment: Antibacterial activity against methicillin-resistant Staphylococcus aureus 4913 at 4 hrs daily exposure for 5 days by broth microdilution method; type: functional
Staphylococcus aureus [2] = experiment: Antibacterial activity against methicillin-resistant Staphylococcus aureus 4930 at 4 hrs daily exposure for 5 days by broth microdilution method; type: functional
Staphylococcus aureus [3] = experiment: Antibacterial activity against methicillin-resistant Staphylococcus aureus 5004 at 4 hrs daily exposure for 5 days by broth microdilution method; type: functional
Staphylococcus aureus [4] = experiment: Antibacterial activity against methicillin-resistant Staphylococcus aureus at 4 hrs daily exposure for 5 day; type: functional, organism-based
Staphylococcus aureus [5] = experiment: Antibacterial activity against methicillin-resistant Staphylococcus aureus 4803 at 4 hrs daily exposure for 1 day by broth microdilution method; type: functional
Staphylococcus aureus [6] = experiment: Antibacterial activity against methicillin-resistant Staphylococcus aureus 4913 at 4 hrs daily exposure for 1 day by broth microdilution method; type: functional
Staphylococcus aureus [7] = experiment: Antibacterial activity against methicillin-resistant Staphylococcus aureus 4930 at 4 hrs daily exposure for 1 day by broth microdilution method; type: functional
Staphylococcus aureus [8] = experiment: Antibacterial activity against methicillin-resistant Staphylococcus aureus 5098 at 4 hrs daily exposure for 1 day by broth microdilution method; type: functional
Staphylococcus aureus [9] = experiment: Antibacterial activity against methicillin-resistant Staphylococcus aureus 5004 at 4 hrs daily exposure for 1 day by broth microdilution method; type: functional
Staphylococcus aureus [10] = experiment: Antibacterial activity against methicillin-resistant Staphylococcus aureus 859 at 4 hrs daily exposure for 1 day by broth microdilution method; type: functional
Staphylococcus aureus [11] = experiment: Antibacterial activity against methicillin-resistant Staphylococcus aureus 4875 at 4 hrs daily exposure for 1 day by broth microdilution method; type: functional
Staphylococcus aureus [12] = experiment: Antibacterial activity against methicillin-resistant Staphylococcus aureus 4342 at 4 hrs daily exposure for 1 day by broth microdilution method; type: functional
Staphylococcus aureus [13] = experiment: Antibacterial activity against methicillin-resistant Staphylococcus aureus 293 at 4 hrs daily exposure for 1 day by broth microdilution method; type: functional
Staphylococcus aureus [14] = experiment: Antibacterial activity against methicillin-resistant Staphylococcus aureus 789 at 4 hrs daily exposure for 1 day by broth microdilution method; type: functional
Staphylococcus aureus [15] = experiment: Antibacterial activity against methicillin-resistant Staphylococcus aureus 4803 at 4 hrs daily exposure for 5 days by broth microdilution method; type: functional
Staphylococcus aureus [16] = experiment: Antibacterial activity against methicillin-resistant Staphylococcus aureus 4875 at 4 hrs daily exposure for 5 days by broth microdilution method; type: functional
Staphylococcus aureus [17] = experiment: Antibacterial activity against methicillin-resistant Staphylococcus aureus 4342 at 4 hrs daily exposure for 5 days by broth microdilution method; type: functional
Staphylococcus aureus [18] = experiment: Antibacterial activity against methicillin-resistant Staphylococcus aureus 293 at 4 hrs daily exposure for 5 days by broth microdilution method; type: functional
Staphylococcus aureus [19] = experiment: Antibacterial activity against methicillin-resistant Staphylococcus aureus 789 at 4 hrs daily exposure for 5 days by broth microdilution method; type: functional, organism-based
Staphylococcus aureus [20] = experiment: Antibacterial activity against methicillin-resistant Staphylococcus aureus after 24 hrs by silicone disk biofilm colonization method; type: functional, organism-based
Staphylococcus aureus [21] = experiment: Antibacterial activity against methicillin-resistant Staphylococcus aureus at 4 hrs daily exposure for 2 days; type: functional, organism-based
Staphylococcus aureus [22] = experiment: Antibacterial activity against methicillin-resistant Staphylococcus aureus at 4 hrs daily exposure for 3 days; type: functional, organism-based
Staphylococcus aureus [23] = experiment: Antibacterial activity against methicillin-resistant Staphylococcus aureus 5098 at 4 hrs daily exposure for 5 days by broth microdilution method; type: functional
Staphylococcus aureus [24] = experiment: Antibacterial activity against methicillin-resistant Staphylococcus aureus 859 at 4 hrs daily exposure for 5 days by broth microdilution method; type: functional

Compound | MIC (Staphylococcus aureus [1]) [µg/mL] | Activity (Staphylococcus aureus [4]) | MIC (Staphylococcus aureus [5]) [µg/mL] | MIC (Staphylococcus aureus [6]) [µg/mL] | MIC (Staphylococcus aureus [7]) [µg/mL] | MIC (Staphylococcus aureus [8]) [µg/mL] | MIC (Staphylococcus aureus [9]) [µg/mL] | MIC (Staphylococcus aureus [10]) [µg/mL] | MIC (Staphylococcus aureus [11]) [µg/mL] | MIC (Staphylococcus aureus [12]) [µg/mL] | MIC (Staphylococcus aureus [13]) [µg/mL] | MIC (Staphylococcus aureus [14]) [µg/mL] | Activity (Staphylococcus aureus [19]) | Activity (Staphylococcus aureus [20]) | Activity (Staphylococcus aureus [21]) | further results
CC(=O)NC[C@H]1CN(c2ccc(N3CCOCC3)c(F)c2)C(=O)O1 [LINEZOLID] | 8 (≈ 23.7 µM) | inactive | 0.5 (≈ 1.48 µM) | 0.5 (≈ 1.48 µM) | 0.5 (≈ 1.48 µM) | 0.25 (≈ 0.741 µM) | 0.5 (≈ 1.48 µM) | 0.5 (≈ 1.48 µM) | 0.5 (≈ 1.48 µM) | 1 (≈ 2.96 µM) | 1 (≈ 2.96 µM) | 0.5 (≈ 1.48 µM) | Active | – | – | Activity (Staphylococcus aureus [2]): Active; Activity (Staphylococcus aureus [3]): Active; Activity (Staphylococcus aureus [15]): Active; Activity (Staphylococcus aureus [16]): Active; Activity (Staphylococcus aureus [17]): Active; Activity (Staphylococcus aureus [18]): Active
CN[C@H](CC(C)C)C(=O)N[C@H]1C(=O)N[C@@H](CC(N)=O)C(=O)N[C@H]2C(=O)N[C@H]3C(=O)N[C@H](C(=O)N[C@H](C(=O)O)c4cc(O)cc(O)c4-c4cc3ccc4O)[C@H](O)c3ccc(c(Cl)c3)Oc3cc2cc(c3O[C@@H]2O[C@H](CO)[C@@H](O)[C@H](O)[C@H]2O[C@H]2C[C@](C)(N)[C@H](O)[C@H](C)O2)Oc2ccc(cc2Cl)[C@H]1O | – | inactive | – | – | – | – | – | – | – | – | – | – | – | – | – | –
CCCCCCCCCC(=O)N[C@@H](Cc1c[nH]c2ccccc12)C(=O)N[C@H](CC(N)=O)C(=O)N[C@@H](CC(=O)O)C(=O)N[C@@H]1C(=O)NCC(=O)N[C@@H](CCCN)C(=O)N[C@@H](CC(=O)O)C(=O)N[C@H](C)C(=O)N[C@@H](CC(=O)O)C(=O)NCC(=O)N[C@H](CO)C(=O)N[C@@H]([C@H](C)CC(=O)O)C(=O)N[C@@H](CC(=O)c2ccccc2N)C(=O)O[C@@H]1C | – | – | – | – | – | – | – | – | – | – | – | – | – | Active | Active | –
CN(C)c1ccc(O)c2c1C[C@H]1C[C@H]3[C@H](N(C)C)C(O)=C(C(N)=O)C(=O)[C@@]3(O)C(O)=C1C2=O | – | – | – | – | – | – | – | – | – | – | – | – | – | Active | Active | –
CN(C)c1cc(NC(=O)CNC(C)(C)C)c(O)c2c1C[C@H]1C[C@H]3[C@H](N(C)C)C(O)=C(C(N)=O)C(=O)[C@@]3(O)C(O)=C1C2=O | – | – | – | – | – | – | – | – | – | – | – | – | – | Active | – | Activity (Staphylococcus aureus [22]): Active
CO[C@H]1/C=C/O[C@@]2(C)Oc3c(C)c(O)c4c(O)c(c(/C=N/N5CCN(C)CC5)c(O)c4c3C2=O)NC(=O)/C(C)=C\C=C\[C@H](C)[C@H](O)[C@@H](C)[C@@H](O)[C@@H](C)[C@H](OC(C)=O)[C@@H]1C [RIFAMPIN] | 128 (≈ 156 µM) | inactive | < 0.06 | 128 (≈ 156 µM) | < 0.06 | < 0.06 | < 0.06 | < 0.06 | < 0.06 | < 0.06 | < 0.06 | < 0.06 | Active | – | – | MIC (Staphylococcus aureus [2]): < 0.06 µg/mL; MIC (Staphylococcus aureus [23]): 128 µg/mL (≈ 156 µM); MIC (Staphylococcus aureus [3]): 128 µg/mL (≈ 156 µM); MIC (Staphylococcus aureus [15]): 128 µg/mL (≈ 156 µM); MIC (Staphylococcus aureus [24]): 32 µg/mL (≈ 38.9 µM); MIC (Staphylococcus aureus [16]): 128 µg/mL (≈ 156 µM); MIC (Staphylococcus aureus [17]): 128 µg/mL (≈ 156 µM); MIC (Staphylococcus aureus [18]): 128 µg/mL (≈ 156 µM)
